In brackets after ≈: the same amount, converted by molar mass.
Legend:
[1] = tested on: ANKA strain of Plasmodium berghei; experiment: single dose ED50/ED90/ED99 determinations in infected mice; type: in vivo; conditions: single dose po in SSV, mice, percent reduction in parasitemia on day three post-infection
Protocol: In the single dose ED50/ED90/ED99 determinations, Moro SPF or NMRI mice (group of three) infected with the ANKA strain of Plasmodium berghei were treated on day one post-infection. […] The SSV consists of 0.5% w/v CMC, 0.5% v/v benzyl alcohol, 0.4% v/v Tween 80, and 0.9% w/v sodium chloride in water. Antimalarial activity was measured by percent reduction in parasitemia on day three post-infection. The ED50/ED90 values were calculated by nonlinear fitting.

[2] = tested on: P. falciparum NF54 strain (sensitive to standard antimalarials); experiment: semiautomated microdilution assay, [3H]-hypoxanthine incorporation, NF54 strain; type: cell-based, Plasmodium falciparum; conditions: NF54 strain, 72 h incubation; for IC50: Plasmodium falciparum, read-out: IC50 (ng/ml) NF54
Outline: (§1)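 Compounds were tested against intraerythrocytic parasites taken from asynchronous stock cultures, using semiautomated microdilution. IC50 values were estimated by logit regression analysis.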

[3] = tested on: P. falciparum K1 strain (Thailand resistant to chloroquine); experiment: semiautomated microdilution assay, [3H]-hypoxanthine incorporation, K1 strain; type: cell-based, Plasmodium falciparum; conditions: K1 strain, 72 h incubation; for IC50: Plasmodium falciparum, read-out: IC50 (ng/ml) K1
Outline: as §1

[4] = tested on: ANKA strain of P. berghei; experiment: single dose STI in vivo screen in infected mice; parameters: species or system Plasmodium berghei; conditions: for Activity (%) po / Activity (%) sc / Activity (%) SSVpo / Activity (%) 3 mg/kg SSV po / Activity (%) 10 mg/kg SSV po: percent reduction in parasitemia day 3 post-infection; for Activity (%) po / Survival (days) po: single 10 mg/kg po in 3% ethanol and 7% Tween 80; for Activity (%) po / Activity (%) sc / Activity (%) SSVpo: mice; for Activity (%) sc / Survival (days) sc: single 10 mg/kg sc in 3% ethanol and 7% Tween 80; for Activity (%) SSVpo: single po dose in standard suspending vehicle (SSV); for Survival (days) po / Survival (days) sc / Survival (days) SSVpo: untreated control 5.6 ± 0.3; for Survival (days) SSVpo: single po dose in SSV; for Activity (%) 3 mg/kg SSV po: single 3 mg/kg po in SSV
Outline: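 Groups of 3-5 Moro SPF or NMRI mice infected with the ANKA strain of P. berghei received a single dose of trioxolane on day one post-infection. The compound was given in 3% ethanol and 7% Tween 80 or in SSV (0.5% w/v CMC, 0.5% v/v benzyl alcohol, 0.4% v/v Tween 80, 0.9% w/v sodium chloride in water). Antimalarial activity was scored as percent reduction in parasitemia on day three and as survival time versus untreated controls. Survival to day 30 counted as cure.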

[5] = tested on: Schistosoma mansoni 21-day-old schistosomules; experiment: effect on 21-day-old schistosomules in mice; type: in vivo; conditions: single 200 mg/kg per os, female mice
Protocol: All groups were killed 4 weeks after treatment and the liver and intestine were removed and separated. The liver and intestine were compressed and alive male and female worms could be seen and counted. The effect of the compounds was evaluated by mean total and female worm burden.

P. berghei ANKA strain = experiment: treatment: 3x3 mg/kg and 3x1 mg/kg po divided doses in infected mice; type: in vivo, Plasmodium berghei; conditions: SSV; for activity (percent reduction of parasitemia): 3×1 mg/kg po on days 1, 2, 3 post-infection; for infected mice cured: 3×3 mg/kg po on days 1, 2, 3 post-infection
Protocol: Moro NMRI male mice (Fü Albino specific pathogen free) weighing 18±2 g were infected intravenously (i.v.) with 2×10^7 P. berghei ANKA strain-infected erythrocytes from donor mice on day 0 of the experiment. From donor mice with circa 30% parasitemia, heparinized blood was taken and diluted in physiological saline to 10^8 parasitized erythrocytes per ml. An aliquot (0.2 ml) of this suspension was injected i.v. into experimental and control groups of mice. In untreated control mice, parasitemia rose regularly to 40 to 50% by day 3 post-infection and 70 to 80% by day 4 post-infection. The mice died between days 5 and 7 post-infection. Throughout the experiments, mice were kept in groups of three or five animals in Makrolon type II cages in an air-conditioned animal room at 22 to 23° C. A diet with p-aminobenzoic acid (PABA) of 45 mg (NAFAG FUTTER© food N^o 9009 PAB-45) per kg of body weight, and tap water is available ad libitum.
OZ compounds were prepared at an appropriate concentration, either as a solution or a suspension containing SSV (0.5% w/v CMC, 0.5% v/v benzyl alcohol, 0.4% v/v Tween 80, and 0.9% w/v sodium chloride in water). They were administered per os (p.o.) in a total volume of 0.01 ml per gram of mouse. The activity of the compound was determined by a variety of methods outlined in subsequent sections. Survival time was also recorded, and survival to day 30 post-infection was considered to be a cure.
The second experiment consists of administration of divided 3×3 mg/kg and 3×1 mg/kg po doses administered on days 1, 2, and 3 post-infection. On day 4 post-infection, blood smears of all animals were prepared and stained with Giemsa. Parasitemia was determined microscopically, and the difference between the mean value of the control group (taken as 100%) and those of the experimental groups was calculated and expressed as percent reduction. Compounds were administered orally in the SSV vehicle.

[6] = tested on: Schistosoma mansoni adult schistosomes (49-day-old); experiment: effect on adult schistosomes (49-day-old) in mice; type: in vivo; conditions: single 400 mg/kg per os
Protocol: Mice were infected with 100 Schistosoma mansoni cercariae […]. Each group was treated per os with OZ compounds at single doses of 200, 400, and 600 mg/kg. […] All groups were killed 4 weeks after treatment and the liver and intestine were removed and separated. The liver and intestine were compressed and alive male and female worms could be seen and counted.

Row | SMILES | ED50 [1] [mg/kg] | ED90 [1] [mg/kg] | ED99 [1] [mg/kg] | Activity (%) po [4] [%] | Activity (%) sc [4] [%] | Activity (%) SSVpo [4] [%] | Survival (days) po [4] [days] | Survival (days) sc [4] [days] | Survival (days) SSVpo [4] [days] | IC50 (ng/ml) NF54 [2] [ng/mL] | IC50 (ng/ml) K1 [3] [ng/mL] | other results
1 | C[C@H]1[C@@H](OCc2ccc(C(=O)O)cc2)O[C@@H]2O[C@@]3(C)CC[C@H]4[C@H](C)CC[C@@H]1[C@@]24OO3 [Artelinate] | 4.8 | 10 | 18 |  |  |  |  |  |  |  |  | 
2 | c1ccc(C2CCC3(CC2)OOC2(O3)C3CC4CC(C3)CC2C4)cc1 (stereo not shown) [OZ27] |  | 5.7 | 9.9 | 99.97 | 99.92 | 96 | 12.6 | 17.1 | 8.0 |  |  | IC50 [2]: 4.8 ng/mL (≈ 14.1 nM); IC50 [3]: 2.2 ng/mL (≈ 6.46 nM)
3 | COCC(=O)N1CCC2(CC1)OOC1(O2)C2CC3CC(C2)CC1C3 (stereo not shown) [OZ113] | 3.6 | 9.0 | 19 | 92 | 89 | 96 | 7.3 | 7.3 | 8.0 | 0.20 (≈ 0.593 nM) | 0.95 (≈ 2.82 nM) | 
4 | O=C(NO)[C@H]1CC[C@@]2(CC1)OOC1(O2)C2CC3CC(C2)CC1C3 (stereo partly shown) [OZ127] | 2.5 | 7.6 | 19 | 95 | 97 | 98 | 7.0 | 7.7 | 7.7 | 1.3 (≈ 4.02 nM) | 0.61 (≈ 1.89 nM) | 
5 | c1ncn(C[C@H]2CC[C@]3(CC2)OOC2(O3)C3CC4CC(C3)CC2C4)n1 (stereo partly shown) [OZ177] |  | 3.7 | 5.8 |  |  |  |  |  | 12.7 |  |  | IC50 [2]: 1.7 ng/mL (≈ 4.92 nM); IC50 [3]: 0.9 ng/mL (≈ 2.61 nM)
6 | NC[C@H]1CC[C@]2(CC1)OOC1(O2)C2CC3CC(C2)CC1C3 (stereo partly shown) [OZ181] | 0.63 | 1.8 | 4.0 |  | 100 | 99.91 |  |  | 10.0 |  |  | Activity (%) po ([4]; 10 mg/kg): 99.98%; Survival (days) po ([4]; 10 mg/kg): 9.0 days; Survival (days) sc ([4]; 10 mg/kg): 11.0 days
7 | O=C(NC[C@H]1CC[C@]2(CC1)OO[C@]1(O2)C2CC3CC(C2)CC1C3)N1CCNCC1 [OZ329] |  |  |  |  |  |  |  |  |  | 0.68 (≈ 1.68 nM) | 0.43 (≈ 1.06 nM) | % reduction of schistosomule growth at day 21 after per os application of 200 mg/kg, FWR (%) [5]: 90%; % reduction of schistosomule growth at day 21 after per os application of 200 mg/kg, TWR (%) [5]: 90%; activity (percent reduction of parasitemia) (P. berghei ANKA strain): greater than 99%; infected mice cured (P. berghei ANKA strain): ⅖; % reduction of adult worms growth at day 49 after per os application of 400 mg/kg, TWR (%) [6]: 15%; adult worms at day 49, per os 400 mg/kg, DEAD WORM (%) [6]: 6%
8 | NCCC(=O)NC[C@H]1CC[C@]2(CC1)OO[C@]1(O2)C2CC3CC(C2)CC1C3 [OZ336] |  |  |  |  |  |  |  |  |  |  |  | activity (percent reduction of parasitemia) (P. berghei ANKA strain): greater than 99%; Activity (%) 3 mg/kg SSV po [4]: 98%; Activity (%) 10 mg/kg SSV po ([4]; single 10 mg/kg po in SSV): 99.93%; Survival (days) 10 mg/kg SSV po ([4]; single 10 mg/kg po in SSV): 9.2 days
9 | NC1CCN(C(=O)C[C@H]2CC[C@]3(CC2)OO[C@]2(O3)C3CC4CC(C3)CC2C4)CC1 [OZ339] |  |  |  |  |  |  |  |  |  |  |  | infected mice cured (P. berghei ANKA strain): ⅗; Activity (%) 3 mg/kg SSV po [4]: 99.65%; Activity (%) 10 mg/kg SSV po ([4]; single 10 mg/kg po in SSV): 99.95%
